In patent US7683095B2, “Compositions and methods of treating, reducing and preventing cardiovascular diseases and disorders with polymethoxyflavones” (The United States of America as represented by the …, priority 1998, dated 2010):
Converted amounts (≈) assume the structure as drawn.

System: apolipoprotein B (apoB) production
Test: apo B secretion into medium of HepG2 cells, competitive ELISA
Type: cell-based, human
Settings: for % apo B reduction / Apo B μg/mL medium / % apo B in medium: HepG2, 24 hours; for IC50: Homo sapiens, apo B in medium of HepG2 cells, 24 hours incubation, read-out: IC50 concentrations; for % apo B in medium: percent of control; for inhibitory effect on apo-B production: result in words, these results along with other preliminary studies, alone or in combination
Experimental: Limocitrin derivatives, quercetin derivatives, naturally occurring polymethoxyflavones, and tocotrienols were tested for cholesterol lowering activity in HepG2 cells. Confluent HepG2 cells were preincubated for 24 hours in a lipoprotein-free medium (Minimum Essential Medium (MEM), Life Technologies, Burlington, Canada) in which the fetal bovine serum (Life Technologies, Burlington, Canada) was replaced by bovine serum albumin (BSA, Life Technologies, Burlington, Canada) to inhibit cell proliferation and to stimulate synthesis of cholesterol-containing lipoproteins. Cells were subsequently incubated for another 24 hours in the same medium in the presence or absence of limocitrin derivatives, quercetin derivatives, naturally occurring polymethoxyflavones, or tocotrienols (See Table 1) at the highest concentrations sustaining about 100%±10% cell viability, as determined by the 3-(4,5-dimethylthiazol-2-yl)-2,5-diphenyltetrazolium bromide (MTT) viability assay. The test compounds were added to the cell culture medium after solubilization in dimethyl sulfoxide (DMSO) and filter sterilized. […] For each experiment, equal concentrations of solvent were added to all treatment media and to a control medium (without tested compounds). At the end of the incubation, culture media were collected and the concentration of the LDL structural protein, apo-B, was measured by ELISA. The competitive Elisa assay kit for determination of human apo B (Ortho Diagostics, LaJolla, Calif.) measures medium apo B concentrations within the range 0.4-0.031 μg/mL. In this assay, microtiter 96-well plates are coated with monoclonal antibody against human apo B, which binds apo B epitope from human LDL (standard curve, control sera with high and low content of human apo B) or from LDL-like lipoproteins secreted by HepG2 cells (tested media, usually 2× diluted with Ca^2+- and […]-free phosphate buffered saline (PBS)). After the exposure, a fraction of antibody is blocked and the remaining amount is captured by a subsequent incubation with conjugate containing a secondary antibody (against anti-human apo B) coupled with horseradish peroxidase. The following incubation with horseradish peroxidase substrate, o-phenylenediamine, produces a yellow color change proportional to the amount of apo B present, and the optical density of samples is measured at 490-492 nm against the blank PBS/conjugate wells. To determine whether evaluated compounds cross-react with Elisa assay, in separate study, various doses of compounds were tested in presence of cell-free culture media.
Amount of lipoprotein-associated apo-B in the media net apo-B secretion) was determined as described above, and calculated per mg cell protein. Net apo B3 secretion was also expressed as percent of control (amount of apo B in medium from cells incubated without tested compounds).

[1] = concentration 6.25 μg/mL medium
[2] = concentration 12.5 μg/mL medium
[3] = concentration 25.0 μg/mL medium
[4] = concentration 50.0 μg/mL medium
[5] = concentration 3.12 μg/mL medium

Row | Compound | % apo B reduction [1] | Apo B μg/mL medium [1] | % apo B reduction [2] | Apo B μg/mL medium [2] | % apo B reduction [3] | Apo B μg/mL medium [3] | % apo B in medium [1] | % apo B in medium [2] | % apo B in medium [3] | inhibitory effect on apo-B production | other results
1 | COc1ccc(-c2oc3c(OC)c(OC)c(OC)c(OC)c3c(=O)c2OC)cc1OC [Heptamethoxyflavone, 3,5,6,7,8,3′,4′-heptamethoxyflavone] | 45% | 0.138 ± 0.02 μg/mL medium | 68% | 0.080 ± 0.02 μg/mL medium | 81% | 0.048 ± 0.01 μg/mL medium | 55 ± 5% | 32 ± 9% | 19 ± 3% | inhibitory effects | % apo B reduction [4]: 82%; Apo B μg/mL medium [4]: 0.045 ± 0.01 μg/mL medium; IC50: 7.8 µg/mL (≈ 18 µM); % apo B in medium [4]: 18 ± 2%
2 | COc1ccc(-c2cc(=O)c3c(OC)cc(OC)c(OC)c3o2)cc1 [tetra-O-methylisoscutellarein, 5,7,8,4′-tetramethoxyflavone] |  |  |  |  |  |  |  |  |  | inhibitory effects | 
3 | COc1ccc(-c2cc(=O)c3c(O)c(OC)c(OC)c(OC)c3o2)cc1OC [5-desmethylnobiletin, 5-hydroxy-6,7,8,3′,4′-pentamethoxyflavone] |  |  |  |  |  |  |  |  |  | inhibitory effects | 
4 | COc1c(-c2ccc(OCc3ccccc3)c(OCc3ccccc3)c2)oc2cc(OCc3ccccc3)cc(OC)c2c1=O [quercetin-3,5-dimethylether-7,3′,4′-tribenzyl ether] |  |  |  |  |  |  |  |  |  | inhibitory effects | 
5 | COc1ccc(-c2cc(=O)c3c(OC)c(OC)c(OC)cc3o2)cc1 [Tetra-O-methyl-Scutellarein] | 29% | 0.305 ± 0.03 μg/mL medium | 41% | 0.255 ± 0.06 μg/mL medium |  |  | 71 ± 7% | 59 ± 13% |  |  | 
6 | COc1ccc(-c2cc(=O)c3c(O)c(OC)c(OC)cc3o2)cc1OC [5-desmethylsinensetin, 5-hydroxy-6,7,3′,4′-tetramethoxyflavone] |  |  |  |  | 27% | 0.84 ± 0.21 μg/mL medium |  |  | 73 ± 18% | inhibitory effects | % apo B reduction [4]: 64%; Apo B μg/mL medium [4]: 0.41 ± 0.20 μg/mL medium; % apo B in medium [4]: 36 ± 1%
7 | COc1ccc(-c2cc(=O)c3c(OC)c(OC)c(OC)c(OC)c3o2)cc1 [tangeretin, 5,6,7,8,4′-pentamethoxyflavone] | 78% | 0.055 ± 0.01 μg/mL medium | 81% | 0.048 ± 0.01 μg/mL medium | 86% | 0.035 ± 0.01 μg/mL medium | 22 ± 2% | 19 ± 2% | 14 ± 1% | inhibitory effects | % apo B reduction [5]: 68%; Apo B μg/mL medium [5]: 0.080 ± 0.02 μg/mL medium; IC50: 2.5 µg/mL (≈ 6.71 µM); % apo B in medium [5]: 32 ± 8%
8 | COc1ccc(-c2cc(=O)c3c(OC)c(OC)c(OC)cc3o2)cc1OC [Sinensetin, 5,6,7,3′,4′-pentamethoxyflavone] | 25% | 0.70 ± 0.13 μg/mL medium | 42% | 0.54 ± 0.04 μg/mL medium | 62% | 0.35 ± 0.04 μg/mL medium | 75 ± 14% | 58 ± 4% | 38 ± 5% | inhibitory effects | % apo B reduction [4]: 72%; Apo B μg/mL medium [4]: 0.26 ± 0.02 μg/mL medium; IC50: 17.8 µg/mL (≈ 47.8 µM); % apo B in medium [4]: 28 ± 5%
9 | COc1cc(OC)c2c(=O)c(OC(C)=O)c(-c3ccc(OC)c(OC)c3)oc2c1 [quercetin-5,7,3′,4′-tetramethylether-3-acetate] |  |  |  |  |  |  |  |  |  | inhibitory effects | 
10 | COc1ccc(-c2oc3c(OC)c(OC)cc(O)c3c(=O)c2OC)cc1OC [limocitrin-3,7,4′-trimethylether, 5-hydroxy-3,7,8,3′,4′-pentamethoxyflavone] |  |  |  |  |  |  |  |  |  | inhibitory effects | 
11 | COc1ccc(-c2cc(=O)c3c(OC)c(OC)c(OC)c(OC)c3o2)cc1OC [nobiletin, 5,6,7,8,3′,4′-hexamethoxyflavone] | 33% | 0.37 ± 0.09 μg/mL medium | 68% | 0.175 ± 0.03 μg/mL medium | 82% | 0.10 ± 0.01 μg/mL medium | 67 ± 16% | 32 ± 6% | 18 ± 1% | inhibitory effects | % apo B reduction [4]: 83%; Apo B μg/mL medium [4]: 0.095 ± 0.01 μg/mL medium; IC50: 4.9 µg/mL (≈ 12.2 µM); % apo B in medium [4]: 17 ± 1%
12 | COc1cc(OC)c2c(=O)c(O)c(-c3ccc(OC)c(OC)c3)oc2c1 [quercetin-5,7,3′,4′-tetramethylether, 3-hydroxy-5,7,3′,4′-tetramethoxyflavone] |  |  |  |  |  |  |  |  |  | inhibitory effects | 
13 | COc1ccc(-c2oc3c(OC)c(OC)cc(OC)c3c(=O)c2OC)cc1OC [limocitrin-3,5,7,4′-tetramethylether, 3,5,7,8,3′,4′-hexamethoxyflavone] |  |  |  |  |  |  |  |  |  | inhibitory effects | 
14 | COc1cc(O)c2c(=O)c(OC)c(-c3ccc(OC)c(OC)c3)oc2c1 [quercetin tetramethylether, 5-hydroxy-3,7,3′,4′-tetramethoxyflavone] |  |  |  |  |  |  |  |  |  | inhibitory effects | 
15 | CCOc1ccc(-c2oc3c(OC)c(OCC)cc(OCC)c3c(=O)c2OCC)cc1OC [limocitrin-3,5,7,4′-tetraethylether] |  |  |  |  |  |  |  |  |  | inhibitory effects | 
16 | COc1ccc(-c2oc3c(OC)c(OC)cc(OC(C)=O)c3c(=O)c2OC)cc1OC [limocitrin-3,7,4′-trimethylether-5-acetate] |  |  |  |  |  |  |  |  |  | inhibitory effects | 
